Assay results published in patent US11466286B2, “Methods and compositions for conferring and/or enhancing herbicide tolerance using protoporphyrinogen oxidase or variant thereof” (FarmHannong Co., Ltd., priority 2016, dated 2022).

How the values were obtained:
[1] = tested on: Kwangan soybean (non-transformed); experiment: Herbicide tolerance of soybean; format: in vivo; settings: 5 μM painted on leaves, 7 days
[2] = tested on: CyPPO13 (Synechococcus sp. JA-3-3Ab PPO, SEQ ID NO: 4) variant F373M, MBP fusion; experiment: PPO inhibition assay; format: biochemical; settings: herbicide 0-5,000 nM, 50 μM substrate
[3] = tested on: A. thaliana T3 lines with CyPPO10 wild type or mutants (F360M, F360I, F360L, F360C, A167C), CyPPO13 wild type or mutants (F373M, F373C, F373I, A177C …); experiment: Seed germination of A. thaliana transformants on herbicide media; format: in vivo, Arabidopsis thaliana; settings: 7 days
[4] = tested on: CyPPO13 (Synechococcus sp. JA-3-3Ab PPO, SEQ ID NO: 4) variant F373L, MBP fusion; experiment: PPO inhibition assay; format: biochemical; settings: herbicide 0-5,000 nM, 50 μM substrate
Experimental: (§1) The enzyme activities of PPO protein and PPO protein variants were examined, and inhibition assay by PPO-inhibiting herbicides was conducted. It was confirmed that the PPO protein has low water-solubility, but in case of being expressed as a fusion protein with MBP (maltose binding protein) (MBP-PPO), the PPO protein is able to be stably expressed as water-soluble form. Therefore, the wild type and variant proteins which were expressed in the form of fusion protein with MBP were used in the present test (refer to FIG. 4).
(§2) At first, a substrate of PPO protein, Protoporphyrinogen IX was synthesized. This process was performed in the space where nitrogen gas is streamed. 6 mg of protoporphyrin IX was dissolved in 20% (v/v) EtOH 20 ml, and stirred under dark condition for 30 minutes. The obtained protoporphyrinogen IX solution was put into a 15 ml screw tube in an amount of 800 and flushed with nitrogen gas for 5 minutes. To this, 1 g of sodium amalgam was added and vigorous shaking was performed for 2 minutes. The lid was open to exhaust hydrogen gas in the tube. Thereafter, the lid was closed and incubated for 3 minutes. The […] was filtered using syringe and cellulose membrane filter. To 600 μl of the obtained […], 2M MOPS [3-(N-morpholino)propanesulfonic acid] was added in an amount of approximately 300 thereby adjusting pH to 8.0. To determine the enzyme activity of PPO protein, a reaction mixture was prepared with the following composition (based on 10 ml): 50 mM Tris-Cl (pH 8.0); 50 mM NaCl; 0.04% (v/v) Tween 20; 40 mM glucose (0.072 g); 5 units glucose oxidase (16.6 mg); and 10 units catalase (1 μl).
(§3) Two hundred microliters (200 μl) of reaction mixture containing a purified PPO protein were placed in 96 well plates, and preincubated for 30 min at room temperature to reduce the oxygen concentration by the reaction of glucose oxidase-catalase. The mineral oil was layered and then the reaction was initiated by adding the substrate, […], to a final concentration of 50 μM. The reaction proceeded at room temperature for 30 min and the fluorescence of protoporphyrin IX was measured using Microplate reader (Sense, Hidex) (excitation: 405 nm; emission: 633 nm). To calculate the PPO enzyme activity, protoporphyrinogen IX solution was kept open in the air to oxidize the solution (overnight). To this, 2.7N HCl was added, and the absorbance at 408 nm was measured. A standard curve was generated using standard protoporphyrin IX, and the PPO activity was measured by calibration of protoporphyrin IX using the standard curve of protoporphyrin IX.
(§4) The final concentration of each herbicide was as follows: […]

[5] = tested on: CyPPO13 (Synechococcus sp. JA-3-3Ab PPO, SEQ ID NO: 4) variant F373V, MBP fusion; experiment: PPO inhibition assay; format: biochemical; settings: herbicide 0-5,000 nM, 50 μM substrate
Experimental: as §1, §2, §3, §4

[6] = tested on: PPO-deficient BT3 E. coli (ΔPPO) with CyPPO13 wild type (Cy13 WT, SEQ ID NO: 4); experiment: Growth of transformed BT3 (ΔPPO) on tiafenacil media; format: cell-based
Experimental: (§5) After transforming PPO-deficient BT3 E. coli (ΔPPO) with CyPPO10 or CyPPO13, the transformed BT3 (ΔPPO) was cultured on LB agar plates containing PPO-inhibiting herbicide to examine the growth level of the transformed BT3 (ΔPPO). BT3 (ΔPPO) strain was obtained from Hokkaido University (Japan). The BT3 (ΔPPO) strain is deficient in hemG-type PPO and has kanamycin tolerance (refer to “Watanabe et al., Dual targeting of spinach protoporphyrinogen oxidase II to mitochondria and chloroplasts by alternative use of two in-frame […], JBC 2001 276(23):20474-20481; Che et al., Molecular Characterization and Subcellular Localization of Protoporphyrinogen Oxidase in Spinach Chloroplasts, Plant Physiol. 2000 September; 124(1):59-70”).
(§6) CyPPO10 and CyPPO13 genes were cloned in pACBB vector (Plasmid #32551; Addgene; refer to FIG. 1).
(§7) For seed culture of E. coli transformed with respective genes, each single colony of E. coli transformant as provided above was cultured in 3 ml of LB broth containing chloramphenicol overnight (220 rpm, 37° C.), and 50 to 100 μl were subcultured in a new 3 ml of LB broth, and they were cultured until absorbance (OD600) became 0.5 to 1, and they were diluted with LB broth to absorbance (OD600) of 0.5. The diluted solution was serially diluted again 5 times by a factor of one tenth with LB broth. […] The LB Agar media were incubated at 37° C., under light condition, and level of inhibiting growth was observed after 16 to 20 hours of incubation.

[7] = tested on: PPO-deficient BT3 E. coli (ΔPPO) with CyPPO10 wild type (Cy10 WT, SEQ ID NO: 2); experiment: as above; format: cell-based
Experimental: as §5, §6, §7

[8] = tested on: wild type A. thaliana (Col-0 ecotype); experiment: Herbicide injury of A. thaliana plants; format: in vivo, Arabidopsis thaliana; settings: 1 μM spray, within 7 days
Experimental: For comparison, the same test was conducted using the wild type A. thaliana (Col-0 ecotype).

[9] = tested on: PPO-deficient BT3 E. coli (ΔPPO) with A. thaliana PPO1 mutant AtPPO1 SLYM (Y426M, S305L, SEQ ID NO: 7); experiment: Growth of transformed BT3 (ΔPPO) on tiafenacil media; format: cell-based
Experimental: as §5, §7
(§8) Plant physiol. 2003 133:736-747).

[10] = tested on: PPO-deficient BT3 E. coli (ΔPPO) with wild type A. thaliana PPO1 (AtPPO1 WT, SEQ ID NO: 5); experiment: as above; format: cell-based; settings: 100 μM tiafenacil
Experimental: as §5, §7, §8

[11] = tested on: soybean transformed with CyPPO10 A167L+F360M; experiment: Herbicide tolerance of soybean; format: in vivo

`COC(=O)CCNC(=O)C(C)Sc1cc(-n2c(=O)cc(C(F)(F)F)n(C)c2=O)c(F)cc1Cl` (stereo not shown) [Tiafenacil] was tested, and the leaf damage [1] was “severe damage”, the IC50 [2] was 0.056 µM and the seed germination ([3]; 25 μM glufosinate+30 nM tiafenacil+40 nM saflufenacil) was “germinated”. The seed germination ([3]; 25 μM glufosinate+70 nM tiafenacil) was “germinated”, the IC50 [4] was 0.141 µM and the IC50 [5] was 0.339 µM. For the same molecule, the growth ([6]; 100 μM tiafenacil) was “at the similar level to that of the medium containing no tiafenacil”, the growth ([6]; 400 μM tiafenacil) was “grew well” and the growth ([7]; 100 μM tiafenacil) was “at the similar level to that of the medium containing no tiafenacil”. The growth ([7]; 400 μM tiafenacil) was “grew well”, the plant damage [8] was “completely died” and the growth ([9]; 400 μM tiafenacil) was “hardly grew”. For the same molecule, the growth ([9]; from 100 μM tiafenacil) was “gradually started to exhibit growth inhibition”, the growth [10] was “did not grow” and the leaf damage ([11]; T0, 15 μM painted on leaves) was “no damage”. The damage level ([11]; T1, 25 μM tiafenacil spray, 5 days) was “no damage”.
